Results taken from patent US20170029494A1, “Antigen Binding Constructs” (Glaxo Group Limited, priority 2011, published 2017).
Values joined by “and” are separate entries in the source; they are usually repeats but may differ in a detail not shown here. Equal entries are not always repeated.

Columns and labels:
[1] = tested on: human VEGF165 induced blood-retinal breakdown; assay: VEGF induced blood-retinal breakdown: rabbit retinal leakage model; assay type: in vivo; set-up: Geometric mean (right eye values adjusted for left eye values): unit not given here; settings: for % reduction vs vehicle / Ratio vs Vehicle: Example 9, Table 4B; for Rt ratio of vitreoretinal fluorescein contents between right-induced and left eyes: Example 9; for Geometric mean (right eye values adjusted for left eye values): Example 42, Table 15B (i)
[2] = tested on: VEGF165-induced proliferation of human umbilical vein endothelial cells (HUVEC); assay: Human Umbilical Cord Endothelial Cell (HUVEC) proliferation assay; assay type: cell-based; settings: for Predicted Means for Max % Inhibition, Estimate: weighted mixed model analysis
Procedure: The assay measures the extent of endothelial cell proliferation induced by a defined concentration of VEGF165 and the ability of VEGF antagonists to block this effect. HUVECs were seeded at 5000 cells per well in 96-well gelatine-coated plates, leaving outer wells free of cells, and incubated for several hours to permit adherence. Test molecules were assayed at equimolar concentrations (max 3.33×10^−08M) with a 2-fold serial dilution, each in triplicate. The VEGF165 was prepared in basal medium to achieve 75 ng/ml final concentration. Medium was removed manually from the cell monolayers and 50 μl basal media was added to prevent the cells from drying out. 25 μl VEGF165-containing medium and 25 μl basal medium or test antibody-containing medium was added as appropriate. Cells were incubated for 72 hrs, after which time the total number of cells was determined using Cell Titre Glo.
The data was analysed using GraphPad Prism using a Sigmodial curve fit, variable slope cf a non-linear regression (variable slope). Individual curve fits were fitted for each molecule and at each day. Due to some poor fitting, it was decided to introduce constraints for the curve where a plateau was not observed at the lower concentration. This constraint would be equal to the mean of the points at the lowest concentration. Data was manually selected as to whether the minimum was constrained or not, and the curve fit and parameters were automatically updated based upon this criteria selection. Estimates of the curve maxima and the standard error were analysed using a weighted mixed model analysis of variance, using 1/(standard error)^2, [SE]^2, as a weighting. The analysis adjusted for variability between plates and days using random effects terms. […] The same analysis was then performed on the log 10 scale for the IC50, and the results back transformed.
The data was analysed using GraphPad Prism using a Sigmodial curve fit, variable slope cf a non-linear regression (variable slope). Individual curve fits were fitted for each molecule and at each day. Due to some poor fitting, it was decided to introduce constraints for the curve where a plateau was not observed at the lower concentration. One plate was excluded from the analysis due to poor curve fitting despite constraints. This constraint would be equal to the mean of the points at the lowest concentration. Data was manually selected as to whether the minimum was constrained or not, and the curve fit and parameters were automatically updated based upon this criteria selection. Estimates of the curve maxima and the standard error were analysed using a weighted mixed model analysis of variance, using 1/(standard error)^2, [SE]^2, as a weighting. The analysis adjusted for variability between plates and days using random effects terms. […]

VEGFR1 (Flt1) = VEGFR1 (Flt1) (Homo sapiens, UniProt P17948); settings: background statement; cited from earlier work
[3] = molecular target: T1, mVEGF R2 Fc (R&D 443-KD/CF) (mouse, UniProt P35918 20-762); assay: MSD on coated mouse VEGF164 (1ug/mL mVEGF capture), detection with sulfo-TAG anti-human IgG Fc
T1 construct: Bought control protein; not shown: Fc part of the bought fusion

[4] = Example 42, Table 15B (ii), 2000 μg/eye
[5] = dose H (high), VEGF induced retinal leakage

T1 sequence (P35918 20-762 limits assumed): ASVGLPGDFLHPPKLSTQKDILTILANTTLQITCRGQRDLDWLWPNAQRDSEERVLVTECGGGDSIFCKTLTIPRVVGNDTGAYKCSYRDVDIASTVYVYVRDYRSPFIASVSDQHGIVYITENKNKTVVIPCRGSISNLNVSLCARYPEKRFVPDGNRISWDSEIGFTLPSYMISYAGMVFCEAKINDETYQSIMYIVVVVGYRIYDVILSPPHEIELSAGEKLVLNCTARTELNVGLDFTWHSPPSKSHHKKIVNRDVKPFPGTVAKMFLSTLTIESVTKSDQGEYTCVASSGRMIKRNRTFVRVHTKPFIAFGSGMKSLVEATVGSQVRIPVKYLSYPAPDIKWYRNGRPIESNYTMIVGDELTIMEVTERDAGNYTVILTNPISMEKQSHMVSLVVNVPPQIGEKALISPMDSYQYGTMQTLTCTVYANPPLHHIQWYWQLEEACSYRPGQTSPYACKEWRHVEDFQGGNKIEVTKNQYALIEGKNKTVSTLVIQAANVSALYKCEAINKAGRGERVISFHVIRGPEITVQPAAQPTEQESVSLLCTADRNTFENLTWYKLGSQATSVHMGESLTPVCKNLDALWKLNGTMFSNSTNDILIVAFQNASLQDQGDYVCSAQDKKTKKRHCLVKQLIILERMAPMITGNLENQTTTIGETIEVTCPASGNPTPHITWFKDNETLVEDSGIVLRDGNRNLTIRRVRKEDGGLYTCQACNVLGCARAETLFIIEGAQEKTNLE
VEGFR1 (Flt1), sequence (P17948 27-1338, species assumed): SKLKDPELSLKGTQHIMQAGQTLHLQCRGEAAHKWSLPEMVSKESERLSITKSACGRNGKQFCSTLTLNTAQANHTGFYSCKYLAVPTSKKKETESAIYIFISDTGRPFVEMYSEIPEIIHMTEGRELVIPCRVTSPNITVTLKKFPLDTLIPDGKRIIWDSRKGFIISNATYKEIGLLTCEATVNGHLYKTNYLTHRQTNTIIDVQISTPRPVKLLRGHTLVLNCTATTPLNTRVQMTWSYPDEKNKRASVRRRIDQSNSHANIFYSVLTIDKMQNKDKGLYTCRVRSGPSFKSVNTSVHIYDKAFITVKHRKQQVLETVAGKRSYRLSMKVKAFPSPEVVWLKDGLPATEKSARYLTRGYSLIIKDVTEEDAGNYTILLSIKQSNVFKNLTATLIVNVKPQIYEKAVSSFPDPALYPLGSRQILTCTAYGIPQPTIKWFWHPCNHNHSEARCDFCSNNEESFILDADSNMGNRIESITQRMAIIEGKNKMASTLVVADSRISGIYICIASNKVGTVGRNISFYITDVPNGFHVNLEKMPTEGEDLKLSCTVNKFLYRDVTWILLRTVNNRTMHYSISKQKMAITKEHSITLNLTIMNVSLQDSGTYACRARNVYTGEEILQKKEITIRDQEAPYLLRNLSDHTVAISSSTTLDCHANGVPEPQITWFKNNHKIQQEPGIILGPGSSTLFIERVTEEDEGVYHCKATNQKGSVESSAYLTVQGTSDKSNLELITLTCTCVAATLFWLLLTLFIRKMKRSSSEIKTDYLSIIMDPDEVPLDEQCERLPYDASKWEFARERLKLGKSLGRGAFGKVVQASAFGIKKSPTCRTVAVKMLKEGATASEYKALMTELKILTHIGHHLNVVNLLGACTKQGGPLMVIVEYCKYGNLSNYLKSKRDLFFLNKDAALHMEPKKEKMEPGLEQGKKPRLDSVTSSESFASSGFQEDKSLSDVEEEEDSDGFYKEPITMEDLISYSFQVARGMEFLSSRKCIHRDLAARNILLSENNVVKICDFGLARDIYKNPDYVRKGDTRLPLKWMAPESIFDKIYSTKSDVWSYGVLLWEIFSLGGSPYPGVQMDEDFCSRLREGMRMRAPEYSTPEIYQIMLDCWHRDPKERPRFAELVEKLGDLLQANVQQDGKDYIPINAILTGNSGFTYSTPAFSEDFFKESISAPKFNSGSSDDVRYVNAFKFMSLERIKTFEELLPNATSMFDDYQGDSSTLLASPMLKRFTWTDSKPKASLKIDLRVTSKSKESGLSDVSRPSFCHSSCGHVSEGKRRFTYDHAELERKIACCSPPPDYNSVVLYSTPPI

C[C@]12C=CC(=O)C=C1CC[C@H]1[C@@H]3C[C@@H](O)[C@](O)(C(=O)CO)[C@@]3(C)C[C@H](O)[C@@]12F [Kenacort, Triamcinalone]
% reduction vs vehicle ([1]; 2000 μg/eye): 85% | Ratio vs Vehicle ([1]; 2000 μg/eye): 0.1485 | Rt ratio of vitreoretinal fluorescein contents between right-induced and left eyes ([1]; Kenacort 2000 μg/eye IVT Day -7): 1.15±0.61 | Geometric mean (right eye values adjusted for left eye values) ([1]; 2000 μg/eye): 10205.21 | % reduction [1, 4]: 80% and 79.9922% | ratio (to vehicle) [1, 4]: 0.2001

Bevacizumab [Avastin]
% reduction vs vehicle [1, 5]: 75% | % reduction vs vehicle ([1]; dose H (high), VEGF induced retinal leakage, listed as Bevacizumab): 75% | Geometric mean (right eye values adjusted for left eye values) ([1]; dose H, IVT Day -7): 12332.94 | Geometric mean (right eye values adjusted for left eye values) ([1]; dose L): 12037.98 | Geometric mean (right eye values adjusted for left eye values) ([1]; dose L/3): 14592.62 | % reduction ([1]; Example 42, Table 15B (ii), dose H): 75.8207% | % reduction ([1]; Example 42, Table 15B (ii), dose L): 76.3990% | % reduction ([1]; Example 42, Table 15B (ii), dose L/3): 71.3905% | reduction of VEGF induced retinal leakage ([1]; Example 42, the three different doses (H, L, L/3)): 71.4-76.4% | inhibit HUVEC proliferation ([2]; Example 8, VEGF165 75 ng/ml, 72 hrs, maximum extent of inhibition): ~100% | inhibition of VEGF driven HUVEC proliferation (extent) ([2]; Example 18, data not shown): ~100% | Predicted Means for Max % Inhibition, Estimate ([2]; Table 14A): 73.5423% | Predicted Means for Max % Inhibition, Estimate ([2]; Table 18A): 71.0316%

Ranibizumab [Lucentis]
Ratio vs Vehicle ([1]; dose H (high)): 0.1826 | % reduction vs vehicle [1, 5]: 82% | % reduction vs vehicle ([1]; dose H (high), VEGF induced retinal leakage, listed as Ranibizumab): 82% | Ratio vs Vehicle ([1]; low dose (L)): 0.2188 | % reduction vs vehicle ([1]; low dose (L), VEGF induced retinal leakage): 78% | % reduction vs vehicle ([1]; low dose (L), VEGF induced retinal leakage, listed as Ranibizumab): 78% | Rt ratio of vitreoretinal fluorescein contents between right-induced and left eyes ([1]; IVT Day -7, 500 ng rhVEGF165 Day 0, read Day 2, dose H (high)): 1.05±0.52 | Rt ratio of vitreoretinal fluorescein contents between right-induced and left eyes ([1]; IVT Day -7, 500 ng rhVEGF165 Day 0, read Day 2, low dose (L)): 1.81±1.76

VEGF
Kd (VEGFR1 (Flt1)): ~0.03 nM

B1: mouse VEGF164 (R&D 493-MV/CF) (ligand, UniProt Q00731-2 27-190, looked up)
chain: APTTEGEQKSHEVIKFMDVYQRSYCRPIETLVDIFQEYPDEIEYIFKPSCVPLMRCAGCCNDEALECVPTSESNITMQIMRIKPHQSQHIGEMSFLQHSRCECRPKKDRTKPENHCEPCSERRKHLFVQDPQTCKCSCKNTDSRCKARQLELNERTCRCDKPRR
notes: Bought reagent; also called mVEGF164; murine VEGF164
binding result [3]: binds
